The data set in a line: gradient 5% acetonitrile 3 min, to 50% in 2 min, to 85% in 15 min, held 3 min, 100 µL/min. To be noted: column: Zorbax Extend-C18 2.1 x 50 mm; eluents: water / acetonitrile, 0.1% formic acid. A digest of the protocol: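 Each retention time is based on an adduct peak selected computationally and verified by manual inspection. Measurements used HPLC–quadrupole time-of-flight mass spectrometry in positive and negative ionization mode on mixtures of ~100 pure standards. Chromatography ran on a Zorbax Extend-C18 column (2.1 × 50 mm, 1.8 μm) at 100 μL/min with water and acetonitrile, each containing 0.1% formic acid, and dead and dwell volumes of 40 μL and 900 μL.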
`CC1(C)CC(=O)c2c(nc(N3CCN(c4ncccn4)CC3)nc2Nc2ccccc2)C1` returned an RP-LC retention time of 1330 s. For the molecule `COC(=O)c1ccc2c(=O)n(-c3cc(OC)cc(OC)c3)c(N3CCCCCC3)nc2c1`, the RP-LC retention time amounted to 1220 s.

Consider `CCCSCCCNc1nc(-c2nnc(-c3ccccc3)o2)nc2ccccc12`, for which the RP-LC retention time stood at 1100 s. For `COc1ccccc1OCC(=O)Nc1cc(-c2ccccn2)no1` the value was 802 s; for `O=C(CNC(=O)c1ccc(F)c(F)c1)Nc1nc2ccccc2[nH]1`, 632 s.

The molecule `COc1ccc(-c2noc(C3CC(=O)N(c4ccc(Cl)cc4)C3)n2)c(OC)c1` (centres undefined) came in with an RP-LC retention time of 928 s. In the case of `Cc1nccn1CC(=O)N1CCC(OCc2nc(C3CC3)no2)CC1`, the RP-LC retention time is 577 s. With `CC(C)OC(=O)CSc1nnc2c(S(=O)(=O)N3CCN(c4ccc(F)cc4)CC3)cccn12` the figure was 917 s. For `Cc1ccc(NC(=O)N2CCC(c3cc(N)on3)CC2)cc1F` the value was 733 s; for `CCc1nn2c(CNS(=O)(=O)c3ccc4c(c3)CCC4)c(-c3ccccc3)nc2s1`, 1020 s; for `CCn1cc(C(=O)Nc2ccccc2F)c2cccnc21`, 812 s.

Turning to `CC(C)(C)c1ccc(S(=O)(=O)N2CCc3nc[nH]c3C2)cc1`, the RP-LC retention time amounted to 683 s. Take `COC(=O)c1cc(C2CC2)nc2c1c(=O)n(Cc1ccc(C)cc1)c(=O)n2C`: the RP-LC retention time is 1160 s. As to `O=C(Nc1cccc(OCc2nnc(-c3ccc(Cl)cc3)o2)c1)c1cnccn1`, the RP-LC retention time is 946 s.

As to `CC(C)CCN(Cc1ccco1)C(=O)Cn1nc2n(c1=O)CCC(N)CC2` (centres undefined), the RP-LC retention time is 633 s. Take `CNC(=O)[C@@H]1CN(S(=O)(=O)c2ccc(Cl)s2)C[C@H]1c1n[nH]c(C)n1`: the RP-LC retention time came to 656 s. Regarding `CCOc1ccc(-c2csc(NC(=O)CCn3c(=O)oc4ccccc43)n2)cc1`, the RP-LC retention time is 997 s.

Turning to `O=S(=O)(c1cc(-c2nnc(C3CC3)o2)co1)N1CCC(N2CCCCC2)CC1`, the RP-LC retention time was determined as 597 s. With `Cc1ccc(CNC(=O)c2ccc3c(=O)n(-c4ccccc4)c(N4CCCC4)nc3c2)o1`, the RP-LC retention time was 830 s. With `CCNC(=O)N1CC(n2cc(C(=O)N(C)CCCc3c(C)nn(C)c3C)nn2)C1` the figure was 569 s; with `CC(C)(C)c1noc(-c2ccc(-n3cnc(C(=O)N4CCCCCC4)c3)nc2)n1`, 1030 s; with `Cc1cc(C#N)cc(C)c1Oc1nc(Nc2ccc(C#N)cc2)nc(N)c1Br`, 1100 s. For `CCC1CN2C=NC(N3CCN(C(=O)Cc4ccccc4)CC3)=CC2=N1` (centres undefined) the value was 615 s; for `CCOc1ccc(NC(=O)N2CCC(n3c(-c4ccco4)nc4cccnc43)C2)cc1` (centres undefined), 759 s; for `c1ccc(CN2CCc3c(sc4ncnc(N5CCOCC5)c34)C2)cc1`, 740 s. As for `O=C(Nc1cccnc1)c1cccc(S(=O)(=O)N2CCCCCC2)c1`, the RP-LC retention time stood at 631 s. `CCOC(=O)C1CCN(C(=O)C2CCN(c3cncnc3N(C)C)CC2)CC1`: the RP-LC retention time is 603 s. `CCCNC(=O)N1CCC(N2CCN(Cc3cccc(F)c3)C(=O)C2=O)CC1` showed an RP-LC retention time of 651 s.

`Cc1nc(-c2csc(S(=O)(=O)N3CCC(C(=O)NCCc4ccccc4)CC3)c2)no1`: the RP-LC retention time is 1060 s. For `COc1cc(OC)cc(C(=O)N2CCc3cn(C)c4cccc(c34)C2)c1` the value was 952 s; for `COc1cc(Cl)c(C)cc1NC(=O)CN1C(=O)NC2(CCCCC2)C1=O`, 884 s; for `CCOc1cc(=O)n2c(c1C(=O)Nc1cc(Cl)c(OC)cc1OC)CCCC2`, 758 s. The molecule `CCc1ccc(N2CC(c3noc(-c4ccc(OC)cc4)n3)CC2=O)cc1` (centres undefined) had an RP-LC retention time of 1080 s. With `O=C(NC1CC1)C1CCCN(c2nc3ncn(CC(=O)N4CCc5ccccc5C4)c(=O)c3s2)C1` (centres undefined) the figure was 689 s. On to `Cc1cc(C(=O)Nc2ccc(S(C)(=O)=O)cc2)no1`, for which the RP-LC retention time worked out at 632 s. For `COc1ccc(-c2nnc(Cc3nc(C(C)C)no3)o2)cc1` the value was 858 s; for `Nc1c(C(=O)Nc2ccccc2F)sc2nc3c(cc12)CCCC3`, 996 s; for `CCOC(=O)c1cc2n(n1)CC(C)(C(=O)NC1CCCC1)N(c1cccc(F)c1)C2=O` (centres undefined), 862 s. `Cc1nc(-c2ccc(OC3CCN(C(=O)NC(C)C)C3)cc2)no1` (centres undefined) came in with an RP-LC retention time of 730 s. Turning to `CCc1nc(-c2csc(S(=O)(=O)N3CCCC(C(=O)Nc4ccc(F)cc4)C3)c2)no1` (centres undefined), the RP-LC retention time is 1030 s.

In turn, `Clc1ccc(C2CC3CCC2N3)cn1` (centres undefined) displayed an RP-LC retention time of 613 s. With `COc1cccc(N2C(=O)C3N=NN(Cc4nc(-c5ccccc5C)no4)C3C2=O)c1` (centres undefined) the figure was 976 s; with `Cc1cc(C(=O)N2CCCCC2)c2c(=O)n(CC(=O)N(C)c3ccccc3)c(=O)n(C)c2n1`, 812 s; with `Cc1ccc(-c2noc(CN3C(=O)C(C)Oc4ccccc43)n2)cc1C` (centres undefined), 1180 s. Molecule `O=C(N[C@H]1C[C@@H]2C[C@H]1N(S(=O)(=O)c1cc(F)cc(F)c1)C2)c1cccs1` gave an RP-LC retention time of 720 s. Molecule `CC(C)CC(=O)N1CCC(Cc2nnc(-c3ccccc3)o2)CC1` came in with an RP-LC retention time of 818 s. `COCc1noc([C@@H]2CN(C(=O)c3ccc(Cl)s3)C[C@H]2C(N)=O)n1`: the RP-LC retention time was 676 s. With `O=C(Cn1nc2nc(N3CCOCC3)ccn2c1=O)Nc1ccc(F)c(F)c1`, the RP-LC retention time came out at 666 s.

In the case of `CCc1ccc(C2=C(C)C(N3CCCN(C(=O)CCOC)CC3)=NS2(=O)=O)cc1`, the RP-LC retention time was determined as 795 s.

As for `Cn1c(=O)n(Cc2ccc(Br)cc2F)c(=O)c2cnc(-c3cccnc3)nc21`, the RP-LC retention time worked out at 968 s. The molecule `O=C(c1cc(C2CC2)[nH]n1)N1CCn2c(nnc2-c2ccccc2)C1` registered an RP-LC retention time of 640 s. Regarding `Nc1c(C(=O)NCC2CC2)nsc1C(=O)O`, the RP-LC retention time stood at 770 s.

On to `COc1ccc(CC(=O)N2CCCC2c2cc(C)on2)cc1` (centres undefined), for which the RP-LC retention time was determined as 736 s. `Cn1cnc2c(NCc3ccccc3)nc(NCCO)nc21` yielded an RP-LC retention time of 657 s. Molecule `CCc1nc2cc(-c3noc(-c4ccccc4C)n3)ccc2o1` gave an RP-LC retention time of 1280 s. With `O=C(O)c1cncc(NS(=O)(=O)c2ccc3c(c2)OCCO3)c1` the figure was 611 s; with `Cc1ccc(NC(=O)C2CCCN(c3ncnc4c3nc3n4CCCCC3)C2)cc1F` (centres undefined), 785 s. Take `CC(CCc1ccccc1)NC(=O)Cc1nnc(-c2ccncc2)o1` (centres undefined): the RP-LC retention time is 744 s. With `Cc1cccc(Cn2c(=O)n(CCNC(=O)C3CCOC3)c3ncccc32)c1` (centres undefined), the RP-LC retention time was found to be 698 s. For `COC(=O)c1c(C)[nH]c(C(=O)N2CCCC(C(=O)NCc3ccccc3C)C2)c1C` (centres undefined) the value was 776 s; for `COc1ccc(C(=O)N2C[C@@H](Oc3cccnc3)C[C@H]2C(N)=O)c(OC)n1`, 572 s; for `CCc1ccc(S(=O)(=O)N2CCN(C3CCN(CCC(C)C)C3=O)CC2)cc1` (centres undefined), 736 s. With `CCNC(=O)N(CC(=O)N1CCc2sccc2C1COc1ccc(F)cc1)CC1CCCO1` (centres undefined) the figure was 856 s. Regarding `O=C(CCC1CCCN(S(=O)(=O)c2ccccc2F)C1)NCCc1ccccc1` (centres undefined), the RP-LC retention time stood at 952 s. Turning to `COCCNC(=O)c1c(C)oc2ccn(Cc3ccc(F)cc3)c(=O)c12`, the RP-LC retention time stood at 837 s. As for `CCOc1ccc(S(=O)(=O)NCc2c(-c3ccccc3)nc3sc(C)nn23)cc1`, the RP-LC retention time was found to be 913 s. Regarding `Cc1cccc(S(=O)(=O)Nc2cc(-c3cn4cccc(C)c4n3)ccc2C)c1`, the RP-LC retention time amounted to 695 s. For `CCC(=O)N1c2ccccc2NC2=C(C(=O)CC(C)(C)C2)C1c1ccc(C#N)cc1` (centres undefined) the value was 797 s; for `Cc1ccc(Cl)cc1NC(=O)c1cc2ccccc2cc1O`, 1180 s. For `O=C(NCC1CCS(=O)(=O)C1)c1cc(-c2ccc(F)cc2)n[nH]1` (centres undefined) the value was 643 s. With `CC(CCc1ccccc1)NC(=O)C1CN(C(=O)c2cccs2)C1` (centres undefined) the figure was 727 s; with `Cn1c2c(c(=O)n3ncc(C(=O)N4CCN(c5ccccn5)CC4)c13)CN(Cc1ccccc1)CC2`, 602 s. `COc1ccc2c(c1)C1CC(C)(O2)N(C)C(=O)C1S(=O)(=O)c1ccc(C)cc1` (centres undefined) showed an RP-LC retention time of 1020 s. For `O=C(N[C@H]1C[C@@H]2C[C@H]1CN2C(=O)Cc1ccc(OC(F)(F)F)cc1)c1cccs1` the value was 832 s; for `COc1cc(NC(=O)Cn2cc(-c3nnc(C)o3)c3ccccc32)cc(OC)c1`, 809 s.

Consider `Cc1ccc(NC(=O)N2CCC(OC3CCN(S(C)(=O)=O)CC3)CC2)cc1F`, for which the RP-LC retention time stood at 792 s. With `COC(=O)c1ccccc1S(=O)(=O)N1CCc2c(c(-c3nnc(-c4ccc(F)cc4)o3)nn2C)C1` the figure was 915 s. `O=C(CCC1CCCC1)N1CCN(c2nnc3c(Cl)cccn23)CC1` had an RP-LC retention time of 691 s.

Turning to `CCCNC(=O)c1cnn(-c2cc(-c3nc(C(C)(C)C)no3)ccn2)c1C`, the RP-LC retention time stood at 961 s.

(Values after the METLIN SMRT retention time set (Domingo-Almenara et al. 2019).)
